# B1: Activin A: a TGFβ/Activin/Nodal family member growth factor (protein, UniProt P08476 311-426, looked up)
# Inhibin beta A chain: GLECDGKVNICCKKQFFVSFKDIGWNDWIIAPSGYHANYCEGECPSHIAGTSGSSLSFHSTVINHYRMRGHSPFANLKSCCVPTKLRPMSMLYYDDGQNIIKKDIQNMIVEECGCS
# modifications: Inhibin beta A chain
# B2: Dkk-1: Wnt inhibitor Dkk-1 (Dickkopf protein 1) (protein, UniProt O94907 32-266, looked up)
# Dickkopf-related protein 1: TLNSVLNSNAIKNLPPPLGGAAGHPGSAVSAAPGILYPGGNKYQTIDNYQPYPCAEDEECGTDEYCASPTRGGDAGVQICLACRKRRKRCMRHAMCCPGNYCKNGICVSSDQNHFRGEIEETITESFGNDHSTLDGYSRRTTLSSKMYHTKGQEGSVCLRSSDCASGLCCARHFWSKICKPVLKEGQVCTKHRRKGSHGLEIFQRCYCGEGLSCRIQKDHHQASNSSRLHTCQRH
# B3: Wnt5a: Wnt-5A class, non-canonical Wnt signaling growth factor (protein, UniProt P41221 62-380, looked up)
# Protein Wnt-5a: IIGAQPLCSQLAGLSQGQKKLCHLYQDHMQYIGEGAKTGIKECQYQFRHRRWNCSTVDNTSVFGRVMQIGSRETAFTYAVSAAGVVNAMSRACREGELSTCGCSRAARPKDLPRDWLWGGCGDNIDYGYRFAKEFVDARERERIHAKGSYESARILMNLHNNEAGRRTVYNLADVACKCHGVSGSCSLKTCWLQLADFRKVGDALKEKYDSAAAMRLNSRGKLVQVNSRFNSPTTQDLVYIDPSPDYCVRNESTGSLGTQGRLCNKTSEGMDGCELMCCGRGYDQFKTVQTERCHCKFHWCCYVKCKKCTEIVDQFVCK
# How the values were obtained:
# Type in all cases: cell-based, mouse
# R1 ES cells [1] = assay: Serum-free monolayer cardiac differentiation of ES cells, beating colonies; conditions: for cardiac differentiation / percentage of beating colonies: early treatment window; for number of beating colonies: treatment days 5 through 7
# Procedure: Having identified the first serum-free monolayer condition for cardiac differentiation of ES cells, we sought to test its efficacy as a platform to discover regulators of cardiomyogenesis. A collection of approximately 200 small molecules and growth factors reported to be influential in developmental processes were assembled. R1 ES cells were grown and plated for differentiation on Matrigel in 24-well plates using the media and growth factors described above. The screening collection was then added and removed from each well at specific time points in order to account for different developmental time windows. The collection was screened at days 0-2, 2-5, and 5-7.
# (§1) Cells are plated at a density of 200,000 cells/well of a 6-well plate in 2.5 ml of ESGM. 6-well plates are coated overnight at 4° C. with 1 ml of Matrigel (BD Bioscience) diluted 50× from stock concentration. 24 hours after plating, or after sufficient colony size was achieved, cells are switched into chemically defined medium (CDM) and treated with 4 uM BIO (Calbiochem) and 20 ng/ml BMP-4 (R&D). CDM contains RPMI 1640, 0.5×N2, 1×B27 (without Vitamin A), 0.5× Glutamax, 0.55 mM beta-mercaptoethanol, 1× non-essential amino acids, 1× nucleosides. At Day 2, medium is changed, and again CDM containing 4 uM BIO with 20 ng/ml BMP-4 is added to the cells. At Day 5, cells are washed once with PBS and medium is changed to CDM containing 100 ng/ml Dkk-1 (R&D). At Day 7, medium is changed, and again CDM containing 100 ng/ml Dkk-1 is added to the cells. At Day 10, cells are trypsinized (0.05% trypsin) (Approximately 5 minutes at 37° C., or until cells begin to detach) and replated onto gelatin coated 6-well plates in CDM with no additional growth factors. By this time, the cells will have formed tight colonies that will be difficult to disrupt (Supplementary FIG. 2b). […] The trypsin is used primarily to detach the cells rather than to dissociate them to a single cell suspension. It is preferable for the colonies to remain intact. The trypsin is briefly quenched with MEF media, cells are centrifuged, and resuspended in CDM for plating. Medium is refreshed as needed to remove dead cells and debris (every 1 to 2 days).
# R1 ES cells [2] = assay: QRT-PCR of markers in differentiating ES cells; conditions: for expression of cardiac specific markers: treatment days 5-7, assessed at day 8; for expression of Brachyury T, Flk-1, GATA-4 and MESP1: treated day 0-2, harvested day 4.5
# Procedure: To further analyze the mechanism of action of the cardiogenic effect seen with these molecules, QRT-PCR was carried out on cells treated from day 0-2 and harvested at day 4.5.
# QRT-PCR was carried out to observe the induction of cardiomyogenesis at the transcript level. At day 5, when A83-01 treatment begins, the predominant state is that of a developed primitive streak type population that is yet to display robust expression of markers of cardiac precursors such as Nkx2.5, Isl-1, and c-kit.
# Total RNA from each sample was prepared from 5×10^4 cells using RNeasy mini kit (Qiagen). Reverse transcription was carried out by using Reverse Transcription System (Promega) and PCR performed using PCR Super Mix (Invitrogen).
# R1 mESCs = assay: Serum-free monolayer cardiac differentiation of ES cells, αMHC immunostaining at day 10; conditions: for effect on cardiac specification (αMHC staining at day 10): factor given in single treatment windows
# Excerpt: While cellular differentiation is a fluid process, its study can be simplified by defining stages of differentiation. In order to identify conditions conducive to cardiomyocyte differentiation, we employed a matrix strategy in which cells were differentiated for 10 days encompassing 4 treatment windows (followed by a period of maturation in the final procedure). The stages identified for the current study were mesendoderm, mesoderm, cardiac precursor, early cardiomyocyte, and mature cardiomyocyte. Shown in FIG. 24 is a schematic representing the transition from ES cells to cardiomyocytes, including markers for each cell type defined and the treatments used to stimulate each transition.
# We began by identifying a minimal serum-free condition in which approximately 1% of cells would express αMHC (alpha-myosin heavy chain) after 10 days of culture. Combinations of medium components and plate coatings were tested in parallel, with the most permissive and consistent condition being a modified chemically defined N2/B27 medium on Matrigel coated plates (see Methods). Prior to differentiation, ES cells were maintained in a pluripotent state on MEFs and with LIF. At day −1, the cells were trypsinized and replated on Matrigel coated plates in LIF supplemented medium, allowing for better cell survival and more robust initial colony formation. In one day, a sufficient colony size is achieved allowing survival in serum-free medium (FIG. 25).
# From a literature search, we identified growth factors, cytokines and small molecules reported to influence cardiac differentiation, such as activators and inhibitors of BMP, TGF-β/Nodal, Hedgehog, Wnt, and Notch pathways and tested each for their ability to induce cardiomyogenesis at each time window. For example, to test Dkk-1 in the second window, cells were in basal medium for days 0-2, treated with Dkk-1 for days 2-5, then cultured in basal medium until day 10 before immunofluorescence scoring. Positive regulators of cardiac specification at each stage were therefore identified by their ability to induce alpha-myosin heavy chain (αMHC) expression at day 10, as assessed by immunostaining.
# as §1
# Cells were fixed in 4% paraformaldehyde (Sigma) for 15 minutes, and stained in 0.3% Triton (Sigma) containing 5% donkey serum (Jackson ImunoResearch). Antibodies were used at dilutions of MF20 [Developmental Studies Hybridoma Bank (DSHB)] […]
molecule,measurement,setting,value
"C[C@H]1O[C@@H](n2cnc3c(N)ncnc32)C[C@@H]1OP(=O)(OCCSC(=O)C(C)(C)C)OCCSC(=O)C(C)(C)C [2′,5′-dd-3′-AMP-bis(t-Bu-SATE)]",cardiac differentiation / percentage of beating colonies,R1 ES cells [1],decrease in the percentage of beating clusters
"Cc1cccc(-c2nn(C(=S)Nc3ccccc3)cc2-c2ccnc3ccccc23)n1 [A83-01, 3-(6-Methyl-2-pyridinyl)-N-phenyl-4-(4-quinolinyl)-1H-pyrazole-1-carbothioamide]",expression of cardiac specific markers,R1 ES cells [2],induced higher levels of expression
same,number of beating colonies,R1 ES cells [1],induced a higher number of beating colonies
"O=C1Nc2cc(Br)ccc2/C1=C1/Nc2ccccc2/C1=N\O [BIO, 6-bromoindirubin-3′-oxime]",effect on cardiac specification (αMHC staining at day 10),R1 mESCs,increase the percentage of αMHC staining
same,optimal dosage,R1 mESCs; first window (day 0-2),4 µM
same,cells staining for αMHC,"R1 mESCs; treatment in the first window, day 10",approximately 20%
COC(=O)C1=C(C)NC(C)=C([N+](=O)[O-])C1c1ccccc1C(F)(F)F (stereo not shown) [BayK 8644],"expression of Brachyury T, Flk-1, GATA-4 and MESP1",R1 ES cells [2],increased
same,cardiac differentiation / percentage of beating colonies,R1 ES cells [1],strong positive stimulator of cardiac differentiation
CCCC(=O)Nc1ncnc2c1ncn2[C@@H]1O[C@@H]2COP(=O)(O)O[C@H]2[C@H]1OC(=O)CCC [dibutyryl cAMP],"expression of Brachyury T, Flk-1, GATA-4 and MESP1",R1 ES cells [2],increased
same,cardiac differentiation / percentage of beating colonies,R1 ES cells [1],increased the percentage of beating colonies
B1,expression of cardiac specific markers,R1 ES cells [2],opposite effect
same,effect on cardiac specification (αMHC staining at day 10),R1 mESCs,negative effects
same,number of beating colonies,R1 ES cells [1],lower number of beating colonies
B2,increase in efficiency of cardiac differentiation,"R1 mESCs; after BMP-4 and BIO for 5 days, treated in third or fourth window",20%
same,colonies developing a beating phenotype,"R1 ES cells [1]; BMP-4 + BIO then Dkk-1, replated on gelatin, basal medium, after 6 days of culture",~50%
B3,decrease in overall beating efficiency,R1 ES cells [1]; same stage as BayK 8644,20%
